Data on ten molecules can be found in US20260285853A1, “COMPOUNDS AND METHODS FOR MODULATING SPLICING” (REMIX THERAPEUTICS INC., priority 2023, published 2026).

Type in all cases: cell-based
In assay [1] the test system is MYB mRNA. Put plainly: Gene panel canonical junction qPCR assay, decrease in CJ mRNA, Table 3. The settings on record: decrease in canonical junction (CJ) mRNA, gene panel qPCR, Table 3. A digest of the protocol:
(§1)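 Eleven-point dose responses from 10 uM final, 24 h, DMSO ≤0.25%, in A673 or K562 cells. Relative quantification by 2^(−ΔΔCt) against housekeeper and vehicle was converted to percent response over fixed ΔCt windows and fitted to yield IC50.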

The subject of another assay is SMN2 mRNA. The description is as above. To be noted: decrease in canonical junction (CJ) mRNA, gene panel qPCR, Table 3. A digest of the protocol: as §1
For assay [2], the system named is HTT mRNA. Described as above. To be noted: decrease in canonical junction (CJ) mRNA, gene panel qPCR, Table 3. A digest of the protocol:
as §1

Assay [3] concerns HTT mRNA. The assay is described as follows: Splicing RT-qPCR assay (THP), Table 2A. The settings on record: Table 2A (THP); for AC50: AJ mRNA increase, read-out: HTT AJ (increase in alternative junction mRNA, AC50); for pIC50: CJ mRNA decrease, read-out: HTT CJ (decrease in canonical junction mRNA, IC50).
In assay [4] the test system is MYB mRNA. Put plainly: Splicing RT-qPCR assay (THP), Table 2A. The settings on record: Table 2A (THP); for AC50: AJ mRNA increase, read-out: MYB AJ (increase in alternative junction mRNA, AC50); for pIC50: CJ mRNA decrease, read-out: MYB CJ (decrease in canonical junction mRNA, IC50).
Assay [5] has as its system SH-SY5Y (human neuroblastoma) cells. The assay is described as follows: Cell viability, Cell Titer Glo 2.0 assay. To be noted: read-out: Viability SHSY5Y.3 GI50. The method, boiled down:
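Following a 72 h incubation (37 °C, 5% CO2, 0.1% DMSO final), compound toxicity toward SH-SY5Y cells was quantified by CellTiter-Glo 2.0.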

pIC50: −log10 of the molar value.

Take `CCNC1CCN(c2cc(F)c(C(=O)Nc3cc(F)c4cn(C)nc4c3)c3nn(C)cc23)CC1` [Compound 300, 4-[4-(ethylamino)-1-piperidyl]-6-fluoro-N-(4-fluoro-2-methylindazol-6-yl)-2-methyl-indazole-7-carboxamide]: the pIC50 was below 5.00 in the assay on MYB mRNA [1]; 5.00 to 6.00 in the assay on SMN2 mRNA; below 5.00 with HTT mRNA [2]; below 5.00 in the assay with HTT mRNA [3]; below 5.00 with MYB mRNA [4]. In addition, the AC50 in the assay with HTT mRNA [3] and with MYB mRNA [4] was above 10 µM each time. Besides, the GI50 in assay [5] was in the range of 1 to 10 µM.
Consider `CCNC1CCN(c2cc(F)c(C(=O)Nc3nc4c(C)nc(C)cn4n3)c3nn(C)cc23)CC1` [Compound 301, N-(6,8-dimethyl-[1,2,4]triazolo[1,5-a]pyrazin-2-yl)-4-(4-(ethylamino)piperidin-1-yl)-6-fluoro-2-methyl-2H-indazole-7-carboxamide 2,2,2-trifluoroacetate], for which the negative logarithm of the IC50 (pIC50) with MYB mRNA [1] is below 5.00; in the assay on SMN2 mRNA it was 5.00 to 6.00; with HTT mRNA [2], 5.00 to 6.00; in the assay with HTT mRNA [3] it was 5.00 to 6.00; with MYB mRNA [4], below 5.00. Moreover, the AC50 with HTT mRNA [3] and with MYB mRNA [4] was above 10 µM throughout. In addition, the GI50 in assay [5] is above 10 µM.
Take `CCNC1CCN(c2cc(F)c(C(=O)Nc3cc4c(C)nc(C)cn4n3)c3nn(C)cc23)CC1` [Compound 302, N-(4,6-dimethylpyrazolo [1,5-a]pyrazin-2-yl)-4-[4-(ethylamino)-1-piperidyl]-6-fluoro-2-methyl-indazole-7-carboxamide]: the pIC50 in the assay with MYB mRNA [1], in the assay on SMN2 mRNA, in the assay on HTT mRNA [2], in the assay on HTT mRNA [3] and in the assay on MYB mRNA [4] was below 5.00 throughout. Also, the AC50 in the assay on HTT mRNA [3] and in the assay on MYB mRNA [4] was above 10 µM in each case. The GI50 in assay [5] was above 10 µM.
With `CCNC1CCN(c2ccc(C(=O)Nc3cc(F)c4cnccc4c3)c3nn(C)cc23)CC1` [Compound 303, 4-[4-(ethylamino)-1-piperidyl]-N-(8-fluoro-6-isoquinolyl)-2-methylindazole-7-carboxamide], the pIC50 with MYB mRNA [1], in the assay with SMN2 mRNA, in the assay on HTT mRNA [2], with HTT mRNA [3] and in the assay on MYB mRNA [4] was below 5.00 each time. In addition, the concentration at half-maximal activity (AC50) in the assay with HTT mRNA [3] and in the assay on MYB mRNA [4] was above 10 µM in each case. Moreover, in assay [5], the GI50 lay in the range of 1 to 10 µM.
As to `CCNC1CCN(c2cc(F)c(C(=O)Nc3cn4cc(C5CC5)nc4c(F)c3OC)c3nn(C)cc23)CC1` [Compound 304, N-(2-cyclopropyl-8-fluoro-7-methoxyimidazo [1,2-a]pyridin-6-yl)-4-[4-(ethylamino)-piperidin-1-yl]-6-fluoro-2-methylindazole-7-carboxamide], the pIC50 in the assay with MYB mRNA [1] is below 5.00; in the assay with SMN2 mRNA, 6.00 to 7.00; in the assay with HTT mRNA [2], below 5.00; in the assay with HTT mRNA [3], below 5.00; in the assay with MYB mRNA [4] it was below 5.00. For the same molecule, the AC50 with HTT mRNA [3] and in the assay on MYB mRNA [4] was above 10 µM in each case. In addition, the GI50 in assay [5] lay in the range of 1 to 10 µM.
Regarding `CCNC1CCN(c2cc(F)c(C(=O)Nc3cn4c(C)c(C)nc4c(F)c3OC)c3nn(C)cc23)CC1` [Compound 305, 4-[4-(ethylamino)piperidin-1-yl]-6-fluoro-N-(8-fluoro-7-methoxy-2,3-dimethyl-imidazo[1,2-a]pyridin-6-yl)-2-methylindazole-7-carboxamide], the pIC50 in the assay on MYB mRNA [1], with SMN2 mRNA, in the assay with HTT mRNA [2], in the assay on HTT mRNA [3] and in the assay with MYB mRNA [4] was below 5.00 each time. Also, the AC50 in the assay with HTT mRNA [3] and in the assay on MYB mRNA [4] was above 10 µM throughout. Besides, in assay [5], the GI50 is above 10 µM.
As to `CCNC1CCN(c2cc(F)c(C(=O)Nc3cn4cc(C)nc(C)c4n3)c3nn(C)cc23)CC1` [Compound 306, N-(6,8-dimethylimidazo[1,2-a]pyrazin-2-yl)-4-(4-(ethylamino)-piperidin-1-y1)-6-fluoro-2-methyl-2H-indazole-7-carboxamide 2,2,2-trifluoroacetate], the pIC50 is above 7.00 with MYB mRNA [1]; above 7.00 in the assay with SMN2 mRNA; below 5.00 with HTT mRNA [2]; below 5.00 with HTT mRNA [3]; above 7.00 with MYB mRNA [4]. The values for the AC50 in the assay with HTT mRNA [3] and in the assay on MYB mRNA [4] were 1 to 10 µM and below 0.1 µM, respectively. Also, in assay [5], the GI50 lay in the range of 1 to 10 µM.
As for `CCNC1CCN(c2ccc(C(=O)Nc3cc(C#N)c4nc(C)cn4c3)c3nn(C)cc23)CC1` [Compound 307, N-(8-cyano-2-methyl-imidazo[1,2-a]pyridin-6-yl)-4-[4-(ethylamino)-1-piperidyl]-2-methyl-indazole-7-carboxamide], the pIC50 in the assay with MYB mRNA [1] is 6.00 to 7.00; in the assay on SMN2 mRNA, above 7.00; in the assay on HTT mRNA [2], 5.00 to 6.00; in the assay on HTT mRNA [3], 5.00 to 6.00; in the assay with MYB mRNA [4], 6.00 to 7.00. Further, the concentration at half-maximal activity (AC50) in the assay with HTT mRNA [3] was in the range of 1 to 10 µM; in the assay on MYB mRNA [4] it was 0.1 to 1 µM. The GI50 in assay [5] was 1 to 10 µM.
As for `CCNC1CCN(c2cc(F)c(C(=O)Nc3cn4c(Cl)c(C)nc4c(F)c3OC)c3nn(C)cc23)CC1` [Compound 308, N-(3-chloro-8-fluoro-7-methoxy-2-methyl-imidazo [1,2-a]pyridin-6-yl)-4-[4-(ethylamino)-1-piperidyl]-6-fluoro-2-methyl-indazole-7-carboxamide], the pIC50 with MYB mRNA [1] is below 5.00; in the assay on SMN2 mRNA, 6.00 to 7.00; in the assay on HTT mRNA [2], below 5.00; in the assay with HTT mRNA [3], below 5.00; with MYB mRNA [4], below 5.00. Besides, the AC50 in the assay with HTT mRNA [3] and in the assay with MYB mRNA [4] was above 10 µM each time. Besides, in assay [5], the GI50 was 1 to 10 µM.
Take `CCNC1CCN(c2ccc(C(=O)Nc3cn4cc(C5CC5)nc(C)c4n3)c3nn(C)cc23)CC1` [Compound 309, N-(6-cyclopropyl-8-methylimidazo[1,2-a]-pyrazin-2-yl)-4-[4-(ethylamino)-1-piperidyl]-2-methyl-indazole-7-carboxamide]: the pIC50 in the assay on MYB mRNA [1], in the assay with SMN2 mRNA, in the assay with HTT mRNA [2], in the assay with HTT mRNA [3] and in the assay with MYB mRNA [4] was below 5.00 throughout. Also, the AC50 in the assay with HTT mRNA [3] and with MYB mRNA [4] was above 10 µM in each case. The GI50 in assay [5] was above 10 µM.
